The values below come from patent US20220323406A1, “METHODS AND COMPOSITIONS FOR DIFFERENTIATING STEM CELLS” (Massachusetts Institute of Technology, priority 2019, published 2022).

Molecules are shown by their SMILES. Structures can show the parent of a compound that is named as a salt.

The subject of assay [1] is ENR+CD organoids (ISC to Paneth cell differentiation). The assay is described as follows: Primary screen: CCh-stimulated lysozyme secretion LYZ.S, 2.5-D 384-well ENR+CD organoid differentiation. To be noted: primary screen. It counts as cell-based, mouse. An excerpt:
(§1) High-throughput screening.

For assay [2], the system named is ENR+CD organoids. The assay is described as follows: Primary screen: ATP (CellTiter-Glo 3D, CTG) cell number/viability, 2.5-D 384-well ENR+CD organoids.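 Further: compounds given at plating and again on day 3 over a 6-day differentiation from ENR+CV stem-cell-enriched precursors, ATP measured on day 6, plate median as control.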
The subject of assay [3] is ENR+CD organoids (ISC to Paneth cell differentiation). In words: Primary screen: basal (non-stimulated) lysozyme secretion LYZ.NS, 2.5-D 384-well ENR+CD organoid differentiation. Format: cell-based, mouse.
Description: as §1

The mark [4] stands for this setting: primary screen, dose 0.08 uM, FC relative to plate median.
Setting [5] is: primary screen, dose 0.08 uM, standard z score.
Where [6] appears, read: primary screen, dose 0.40 uM, FC relative to plate median.
[7] abbreviates: primary screen, dose 0.40 uM, standard z score.
[8] abbreviates: primary screen, dose 2.00 uM, FC relative to plate median.
Setting [9] is: primary screen, dose 2.00 uM, standard z score.
[10] abbreviates: primary screen, dose 10.00 uM, FC relative to plate median.
[11] abbreviates: primary screen, dose 10.00 uM, standard z score.
Setting [12] is: primary screen, standard z score, dose 0.08 uM.
Where [13] appears, read: primary screen, standard z score, dose 0.40 uM.
The mark [14] stands for this setting: primary screen, standard z score, dose 2.00 uM.
Setting [15] is: primary screen, standard z score, dose 10.00 uM.
Setting [16] is: primary screen; dose 0.08 uM; FC vs plate median.
Setting [17] is: primary screen; dose 0.40 uM; FC vs plate median.
Setting [18] is: primary screen; dose 2.00 uM; FC vs plate median.

In the case of `O=C1NC(=O)/C(=C/c2cccc(C(F)(F)F)c2)S1` [SMI-4a], the Dose.FC.LYZ.S is 0.036 log2 fold change in assay [1] (dose 0.08 uM, FC relative to plate median); −0.063 log2 fold change in assay [1] (dose 0.40 uM, FC relative to plate median); −0.042 log2 fold change in assay [1] (dose 2.00 uM, FC relative to plate median); −0.134 log2 fold change in assay [1] (dose 10.00 uM, FC relative to plate median). For the same compound, the Dose.FC.CTG in assay [2] (setting [4]) was −0.153 log2 fold change; in assay [2] (setting [6]), −0.317 log2 fold change; in assay [2] (setting [8]), −0.332 log2 fold change; in assay [2] (setting [10]), −0.327 log2 fold change. The Z.CTG in assay [2] (setting [5]) is recorded as −0.366; in assay [2] (setting [7]), −0.758; in assay [2] (setting [9]), −0.793; in assay [2] (setting [11]), −0.781. The Dose.FC.LYZ.NS in assay [3] (setting [4]) is 0.022 log2 fold change; in assay [3] (setting [6]), −0.060 log2 fold change; in assay [3] (setting [8]), 0.032 log2 fold change; in assay [3] (setting [10]), −0.074 log2 fold change. For the same compound, the Z.LYZ.NS is recorded as 0.188 in assay [3] (setting [5]), −0.524 in assay [3] (setting [7]), 0.283 in assay [3] (setting [9]) and −0.643 in assay [3] (setting [11]).

In the case of `Cc1ccccc1C(C(=O)NC1CCCCC1)N(C(=O)Cn1ccnc1C)c1cccc(F)c1` (centres unmarked) [AGI-5198], the Dose.FC.LYZ.S in assay [1] (dose 0.08 uM) is 0.092 log2 fold change; in assay [1] (dose 0.40 uM), 0.185 log2 fold change; in assay [1] (dose 2.00 uM) it was 0.073 log2 fold change; in assay [1] (dose 10.00 uM) it was −0.005 log2 fold change. In addition, the Dose.FC.CTG was 0.309 log2 fold change in assay [2] (primary screen, dose 0.08 uM); 0.154 log2 fold change in assay [2] (primary screen, dose 0.40 uM); 0.281 log2 fold change in assay [2] (primary screen, dose 2.00 uM); 0.336 log2 fold change in assay [2] (primary screen, dose 10.00 uM). The Dose.FC.LYZ.NS is reported as 0.055 log2 fold change in assay [3] (primary screen, dose 0.08 uM); 0.042 log2 fold change in assay [3] (primary screen, dose 0.40 uM); 0.039 log2 fold change in assay [3] (primary screen, dose 2.00 uM); −0.007 log2 fold change in assay [3] (primary screen, dose 10.00 uM). Moreover, the “Z.LYZ.NS (standard z score)” value in assay [3] (primary screen, dose 0.08 uM) is given as 0.482; in assay [3] (primary screen, dose 0.40 uM), 0.362; in assay [3] (primary screen, dose 2.00 uM), 0.342; in assay [3] (primary screen, dose 10.00 uM), −0.064.

With `CC(C)NC[C@@H](C(=O)N1CCN(c2ncnc3c2[C@H](C)C[C@H]3O)CC1)c1ccc(Cl)cc1` [GDC-0068], the Dose.FC.LYZ.S in assay [1] (dose 0.08 uM) was 0.076 log2 fold change; in assay [1] (dose 0.40 uM), 0.087 log2 fold change; in assay [1] (dose 2.00 uM), −0.059 log2 fold change; in assay [1] (dose 10.00 uM), −0.319 log2 fold change. Besides, the Dose.FC.CTG was 0.042 log2 fold change in assay [2] (primary screen, dose 0.08 uM); 0.118 log2 fold change in assay [2] (primary screen, dose 0.40 uM); 0.184 log2 fold change in assay [2] (primary screen, dose 2.00 uM); −0.100 log2 fold change in assay [2] (primary screen, dose 10.00 uM). Further, the Z.CTG in assay [2] (setting [12]) is on record as 0.099; in assay [2] (setting [13]), 0.283; in assay [2] (setting [14]) it was 0.439; in assay [2] (setting [15]), −0.238. Further, the Dose.FC.LYZ.NS in assay [3] (primary screen, dose 0.08 uM) was 0.036 log2 fold change; in assay [3] (primary screen, dose 0.40 uM), 0.054 log2 fold change; in assay [3] (primary screen, dose 2.00 uM) it was −0.077 log2 fold change; in assay [3] (primary screen, dose 10.00 uM), −0.185 log2 fold change. Besides, the Z.LYZ.NS in assay [3] (setting [12]) was 0.311; in assay [3] (setting [13]), 0.469; in assay [3] (setting [14]), −0.675; in assay [3] (setting [15]), −1.613.

Regarding `O=C1CC[C@@]2(O)[C@H]3Cc4ccc(O)c5c4[C@@]2(CCN3CC2CC2)[C@H]1O5` [Naltrexone HCl], the Dose.FC.LYZ.S in assay [1] (dose 0.08 uM, FC vs plate median) is on record as 0.002 log2 fold change; in assay [1] (dose 0.40 uM, FC vs plate median), 0.025 log2 fold change; in assay [1] (dose 2.00 uM, FC vs plate median), 0.025 log2 fold change; in assay [1] (dose 10.00 uM, FC vs plate median), 0.045 log2 fold change. For the same compound, the values for the Dose.FC.CTG in assay [2] (setting [16]), in assay [2] (setting [17]) and in assay [2] (setting [18]) were 0.089 log2 fold change, 0.070 log2 fold change and 0.004 log2 fold change, respectively. Further, the Z.LYZ.NS in assay [3] (setting [5]) was −0.067; in assay [3] (setting [7]), −0.043; in assay [3] (setting [9]) it was 0.166; in assay [3] (setting [11]) it was 0.302. For the same compound, the Dose.FC.LYZ.NS is −0.008 log2 fold change in assay [3] (setting [16]), −0.005 log2 fold change in assay [3] (setting [17]), 0.019 log2 fold change in assay [3] (setting [18]) and 0.035 log2 fold change in assay [3] (primary screen; dose 10.00 uM; FC vs plate median).
